According to patent publication US20250122250A1, “AUXIN-DEGRON SYSTEM KIT AND USE THEREFOR” (Inter-University Research Institute Corporation Research …, priority 2021, published 2025):

Assays:
AtTIR1 (F79G) [1] = biological target: T1, AtTIR1 (F79G) (Arabidopsis thaliana, UniProt Q570C0, D170E/F79G/M473L); test: AID*::GFP reporter degradation in adult nematodes expressing AtTIR1 (F79G); assay type: in vivo; parameters: expressed in transfected cells; host or cells: transgenic C. elegans (CRISPR-Cas9 knock-in at the ttTi5605 locus; larvae, adults, embryos); conditions: 5 μM 5-Ph-IAA for 4 hours
T1 sequence (Q570C0 whole entry F79G/D170E/M473L): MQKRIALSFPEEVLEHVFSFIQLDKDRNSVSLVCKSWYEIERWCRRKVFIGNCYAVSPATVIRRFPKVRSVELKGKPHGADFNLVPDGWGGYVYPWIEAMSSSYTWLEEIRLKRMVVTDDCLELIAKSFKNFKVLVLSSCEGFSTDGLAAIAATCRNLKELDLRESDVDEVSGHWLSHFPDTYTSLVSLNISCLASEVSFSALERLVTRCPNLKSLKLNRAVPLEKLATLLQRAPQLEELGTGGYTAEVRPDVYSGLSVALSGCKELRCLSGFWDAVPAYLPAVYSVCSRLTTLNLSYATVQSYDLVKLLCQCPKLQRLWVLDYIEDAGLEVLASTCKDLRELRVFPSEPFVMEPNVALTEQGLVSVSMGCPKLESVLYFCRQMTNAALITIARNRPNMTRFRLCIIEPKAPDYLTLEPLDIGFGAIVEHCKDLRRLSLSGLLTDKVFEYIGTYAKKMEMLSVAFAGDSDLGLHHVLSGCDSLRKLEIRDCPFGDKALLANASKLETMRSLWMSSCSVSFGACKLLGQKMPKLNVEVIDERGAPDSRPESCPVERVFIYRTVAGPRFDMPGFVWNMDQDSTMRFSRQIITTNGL
T1 sequence (G5ECU1 whole entry, further chain): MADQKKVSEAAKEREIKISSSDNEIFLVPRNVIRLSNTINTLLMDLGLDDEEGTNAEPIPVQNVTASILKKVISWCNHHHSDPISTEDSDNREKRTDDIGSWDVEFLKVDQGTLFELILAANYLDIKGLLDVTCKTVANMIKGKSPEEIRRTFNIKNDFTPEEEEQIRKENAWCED
T1 sequence (P93830 71-114, further chain): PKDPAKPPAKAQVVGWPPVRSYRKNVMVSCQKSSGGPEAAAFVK
Protocol: (§1) Furthermore, the efficacy of the AID2 system in adults was tested.

AtTIR1 (F79G) [2] = biological target: T1, AtTIR1 (F79G); test: AID*::GFP reporter degradation in embryos expressing AtTIR1 (F79G)::mRuby; assay type: in vivo; parameters: expressed in transfected cells
Protocol: Rapid removal of the target in the embryos is useful for analyzing a role of a protein in embryogenesis. Initially, 5-Ph-IAA was used to test the efficacy of protein removal in embryos. An egg-planting embryo expressing AtTIR1 (F79G)::mRuby and AID*::GFP was placed in a droplet of an M9 buffer including 50 μM 5-Ph-IAA, and then the reporter intensity was monitored (see FIG. 4A).
An egg-planting embryo expressing AtTIR1 (F79G)::mRuby and AID*::GFP was placed in a droplet of an M9 buffer including 50 μM 5-Ph-IAA-AM, and then the reporter intensity was monitored (see FIG. 4D).

nematodes = test: number of progeny of L1 larvae grown in the presence of ligand; assay type: in vivo, C. elegans; conditions: 5 μM 5-Ph-IAA, L1 larvae expressing AID*::GFP with AtTIR1 (F79G)
Protocol: Next, in order to confirm that 5-Ph-IAA is safer than IAA against nematodes, L1 larvae expressing AID*::GFP were each grown with AtTIR1 or AtTIR1 (F79G) in the presence of 1 mM IAA or 5 μM 5-Ph-IAA.

AtTIR1 (F79G) [3] = biological target: T1, AtTIR1 (F79G); assay type: in vivo; parameters: expressed in transfected cells; host or cells: transgenic C. elegans (CRISPR-Cas9 knock-in at the ttTi5605 locus; larvae, adults, embryos)
Protocol: (§2) Next, L1 larvae were grown on plates including ligands at different concentrations. The intensity of the AID*::GFP reporter of larvae (second generation) born from adults was monitored.
as §1

AtTIR1 = biological target: T2, AtTIR1 (Arabidopsis thaliana, UniProt Q570C0, D170E/M473L); test: AID*::GFP reporter level in second generation larvae expressing AtTIR1, grown on ligand plates; assay type: in vivo; conditions: combined with AtTIR1, larvae treated for one generation; read-out: estimated DC50 value (ligand concentrations required for 50% degradation)
T2 construct: expressed in transfected cells; host or cells: transgenic C. elegans (larvae)
T2 sequence (G5ECU1 whole entry): as the sequence (G5ECU1 whole entry, further chain) above
T2 sequence (Q570C0 whole entry D170E/M473L): as the sequence (Q570C0 whole entry F79G/D170E/M473L) above, with G79F counted along it
T2 sequence (P93830 71-114, further chain): as the sequence (P93830 71-114, further chain) above
Protocol: as §2, §1

[4] = biological target: AID*::GFP (Arabidopsis thaliana)
[5] = biological target: AID*::GFP (Arabidopsis thaliana); remark: listed apart in the source
[6] = biological target: AID*::GFP (Arabidopsis thaliana); remark: listed apart in the source

With `O=C(O)Cc1c[nH]c2ccc(-c3ccccc3)cc12` [5-Ph-IAA, 5-phenylindole-3-acetic acid] the “AID*::GFP reporter in adults” value (AtTIR1 (F79G) [1]) was “a loss of the reporter was observed”, the “time at which degradation of the reporter reached the maximum” value (AtTIR1 (F79G) [2]; 50 μM 5-Ph-IAA, embryos) was 15 to 30 min and the “embryos with rapid decrease of fluorescence intensity” value (AtTIR1 (F79G) [2]; 50 μM in M9 buffer, 18/23 embryos) was 78%. For the same compound, the “embryos with rapid decrease of fluorescence intensity” value (AtTIR1 (F79G) [2]; 100 μM, 16/20 embryos) was 80%, the number of progeny (nematodes) was “showed no difference” and the “AID*::GFP reporter expression in second generation larvae” value (AtTIR1 (F79G) [3]; 5.0 μM 5-Ph-IAA, among different ligand concentrations) was “lowest reporter expression”. The “ligand concentration required, times lower than that of the AID system (IAA with AtTIR1)” value (AtTIR1 (F79G) [3]; long-term treatment, AID2 system vs AID system) was “about 1,300 times” and the DC50 (AtTIR1 (F79G) [3]; read-out: estimated DC50 value (ligand concentrations required for 50% degradation), combined with AtTIR1 (F79G), larvae treated for one generation) was 0.0045 µM.

`CC(=O)OCOC(=O)Cc1c[nH]c2ccc(-c3ccccc3)cc12` [5-Ph-IAA-AM, 5-phenylindole 3-acetic acid acetoxymethyl ester] was tested, and the “degradation of AID*::GFP reporter in embryos” value (AtTIR1 (F79G) [2]; 50 μM 5-Ph-IAA-AM in M9 buffer) was “rapid degradation in all embryos”.

With `O=C(O)Cc1c[nH]c2ccccc12` [IAA] the DC50 (AtTIR1) was 59 µM.

AtTIR1 (F79G)::mRuby was tested, and the DC50 (ligand concentration required for 50% degradation) of 5-Ph-IAA, AID*::GFP reporter in larvae treated for one generation [4] was 0.0045 µM and the half-life of the AID*::GFP reporter level in larvae treated with 5 µM 5-Ph-IAA [5] was 15.5 min.

Compound AtTIR1::mRuby has a DC50 (ligand concentration required for 50% degradation) of IAA, AID*::GFP reporter in larvae treated for one generation [4] of 59 µM, a half-life of the AID*::GFP reporter level in larvae treated with 1 mM IAA [5] of 16.8 min and an intensity of AID*::GFP in larvae, no ligand added (basal degradation) [6] of 73%.
